What was measured:
FR-positive M109 tumors = assay: Tissue distribution, subcutaneous M109 tumors (Example 11)
Description: The ability of ^99mTc-EC20 to target tumors in vivo was assessed using a FR-positive M109 model.
Four to five week-old mice (Balb/c strain) were purchased from Harlan Sprague Dawley, Inc. (Indianapolis, Ind.) and were maintained on a folate-free diet for a total of three weeks prior to the experiment. Syngeneic, FR-positive M109 tumor cells (1×10^6 per animal) were inoculated in the subcutis of the right axilla two weeks prior to the experiment.
Animals received an approximate 40 μmol/kg i.v. dose of test article in 100 μL volume via a lateral tail vein during brief diethyl ether anesthesia. Four hours post-injection, animals were sacrificed by CO2 asphyxiation, and dissected. Selected tissues were removed, weighed, and counted to determine ^99mTc distribution. CPM values were decay-corrected, and results were tabulated as % injected dose per gram of wet weight tissue.

FR-positive KB tumors [1] = assay: Tissue distribution, KB tumor model (Example 16, Table 5); assay type: in vivo, nude mice; details: about 20-fold excess of free folate
Description: The protocols used in this example are similar to those described in Example 11. The ability of ^99mTc-EC11 (peptide-A1), ^99mTc-EC13 (peptide-A3), and ^99mTc-EC14 (peptide-A2) to target tumors in vivo was assessed using the FR-positive KB tumor model.
(§1) FR-positive KB tumor cells (0.25×10^6 per animal) were inoculated subcutaneously in the intracapsular region. Fourteen days after tumor cell inoculation, the animals (n=4/group) were injected intravenously with ^99mTc-EC11, ^99mTc-EC13, or ^99mTc-EC14 at the doses (about 12 μg/kg) of the conjugates shown in Table 5 below. Stocks of ^99mTc-EC11, ^99mTc-EC13, and ^99mTc-EC14 solutions were prepared on the day of use as described above. About a 20-fold excess of free folate (about 200 μg/kg) was co-administered to control animals (n=4/group). […] Selected tissues were removed, weighed, and counted in an automatic gamma counter to determine ^99mTc distribution. Uptake of the radiopharmaceutical in terms of percentage injected dose of wet weight tissue (% ID/g) was calculated by reference to standards prepared from dilutions of the injected preparation.

FR-positive KB tumors [2] = assay: Tissue distribution of 99mTc-EC53, KB tumors (Table 6); assay type: in vivo
Description: as §1
Similar results (see Table 6 below) were obtained with ^99mTc-EC53 (the all D-enantiomer of EC20) using similar protocols except that the dose of ^99mTc-EC53 was about 50 μg/kg and about a 100-fold excess of free folate or cold EC53 was used. […] The accumulation was blocked by co-administration of free folate.

[3] = 4 hr post i.v., + Folic acid (100 equivalents)
[4] = 4 hr post intravenous injection

In the case of `Nc1nc2ncc(CNc3ccc(C(=O)N[C@@H](CCC(=O)NCCNC(=O)CN(CCN(CCN(CC(=O)[O-])CC(=O)[O-])CC(=O)[O-])CC(=O)[O-])C(=O)O)cc3)nc2c(=O)[nH]1.[111In]` [^111In-DTPA-Folate, reference compound], the Blood (FR-positive M109 tumors; [3]) is reported as 0.09 ± 0.04 % Injected Dose per Gram Tissue, the Heart (FR-positive M109 tumors; [3]) is reported as 0.06 ± 0.02 % Injected Dose per Gram Tissue and the Intestine (FR-positive M109 tumors; [3]) is reported as 0.82 ± 0.14 % Injected Dose per Gram Tissue. The Kidney (FR-positive M109 tumors; [3]) was 3.14 ± 1.96 % Injected Dose per Gram Tissue, the Liver (FR-positive M109 tumors; [3]) was 0.81 ± 0.03 % Injected Dose per Gram Tissue and the Lung (FR-positive M109 tumors; [3]) was 0.09 ± 0.2 % Injected Dose per Gram Tissue. The Muscle (FR-positive M109 tumors; [3]) was 0.05 ± 0.04 % Injected Dose per Gram Tissue, the Spleen (FR-positive M109 tumors; [3]) was 1.46 ± 0.73 % Injected Dose per Gram Tissue and the Stomach (FR-positive M109 tumors; [3]) was 0.25 ± 0.20 % Injected Dose per Gram Tissue. The Tumor (FR-positive M109 tumors; [3]) was 0.46 ± 0.42 % Injected Dose per Gram Tissue, the Tumor/Blood (FR-positive M109 tumors; [3]) was 5.00 ± 4.60 and the Blood (FR-positive M109 tumors; [4]) was 0.21 ± 0.10 % Injected Dose per Gram Tissue. For the same compound, the Heart (FR-positive M109 tumors; [4]) was 2.57 ± 0.82 % Injected Dose per Gram Tissue, the Intestine (FR-positive M109 tumors; [4]) was 1.87 ± 0.69 % Injected Dose per Gram Tissue and the Kidney (FR-positive M109 tumors; [4]) was 191 ± 79.2 % Injected Dose per Gram Tissue. The Liver (FR-positive M109 tumors; [4]) was 5.21 ± 2.63 % Injected Dose per Gram Tissue, the Lung (FR-positive M109 tumors; [4]) was 1.72 ± 0.61 % Injected Dose per Gram Tissue and the Muscle (FR-positive M109 tumors; [4]) was 1.19 ± 0.48 % Injected Dose per Gram Tissue. The Spleen (FR-positive M109 tumors; [4]) was 3.30 ± 2.33 % Injected Dose per Gram Tissue, the Stomach (FR-positive M109 tumors; [4]) was 1.62 ± 0.65 % Injected Dose per Gram Tissue and the Tumor/Blood (FR-positive M109 tumors; [4]) was 102 ± 43.4.
In the case of `Nc1nc2ncc(CNc3ccc(C(=O)N[C@@H](CCC(=O)N[C@H](CCC(=O)NC[C@@H]4[NH2+][99Tc-]56(=[O])[S]C[C@@H](C(=O)O)[N]5C(=O)[C@H](CC(=O)O)[N]6C4=O)C(=O)O)C(=O)O)cc3)nc2c(=O)[nH]1` [^99mTc-EC14], the Blood (FR-positive M109 tumors; [3]) is reported as 0.19 ± 0.07 % Injected Dose per Gram Tissue, the Heart (FR-positive M109 tumors; [3]) is reported as 0.08 ± 0.01 % Injected Dose per Gram Tissue and the Intestine (FR-positive M109 tumors; [3]) is reported as 0.32 ± 0.11 % Injected Dose per Gram Tissue. For the same compound, the Kidney (FR-positive M109 tumors; [3]) was 5.94 ± 0.52 % Injected Dose per Gram Tissue, the Liver (FR-positive M109 tumors; [3]) was 1.37 ± 0.98 % Injected Dose per Gram Tissue and the Lung (FR-positive M109 tumors; [3]) was 0.15 ± 0.04 % Injected Dose per Gram Tissue. The Muscle (FR-positive M109 tumors; [3]) was 0.09 ± 0.11 % Injected Dose per Gram Tissue, the Spleen (FR-positive M109 tumors; [3]) was 2.99 ± 1.43 % Injected Dose per Gram Tissue and the Stomach (FR-positive M109 tumors; [3]) was 0.10 ± 0.03 % Injected Dose per Gram Tissue. The Tumor (FR-positive M109 tumors; [3]) was 0.43 ± 0.52 % Injected Dose per Gram Tissue, the Tumor/Blood (FR-positive M109 tumors; [3]) was 2.00 ± 2.00 and the Blood (FR-positive M109 tumors; [4]) was 0.31 ± 0.14 % Injected Dose per Gram Tissue. For the same compound, the Heart (FR-positive M109 tumors; [4]) was 2.39 ± 0.64 % Injected Dose per Gram Tissue, the Intestine (FR-positive M109 tumors; [4]) was 1.70 ± 0.55 % Injected Dose per Gram Tissue and the Kidney (FR-positive M109 tumors; [4]) was 98.0 ± 40.7 % Injected Dose per Gram Tissue. The Liver (FR-positive M109 tumors; [4]) was 3.44 ± 2.19 % Injected Dose per Gram Tissue, the Lung (FR-positive M109 tumors; [4]) was 2.08 ± 0.40 % Injected Dose per Gram Tissue and the Muscle (FR-positive M109 tumors; [4]) was 0.99 ± 0.28 % Injected Dose per Gram Tissue. For the same compound, the Spleen (FR-positive M109 tumors; [4]) was 2.68 ± 2.49 % Injected Dose per Gram Tissue, the Stomach (FR-positive M109 tumors; [4]) was 1.47 ± 0.58 % Injected Dose per Gram Tissue and the Tumor/Blood (FR-positive M109 tumors; [4]) was 34.1 ± 7.41. The “accumulation in FR-positive KB tumors and kidneys on co-administration of free folate” value (FR-positive KB tumors [1]) was “blocked”.
In the case of `Nc1nc2ncc(CNc3ccc(C(=O)N[C@H](CCC(=O)NC[C@H]4[NH2+][99Tc-]56(=[O])[S]C[C@H](C(=O)O)[N]5C(=O)[C@@H](CC(=O)O)[N]6C4=O)C(=O)O)cc3)nc2c(=O)[nH]1` [^99mTc-EC53], the “Tumor/Blood, Average” value (FR-positive KB tumors [2]; 99mTc-EC53 alone) is reported as 31.4, the “Tumor/Kidney, Average” value (FR-positive KB tumors [2]; 99mTc-EC53 alone) is reported as 0.2 and the “Tumor/Liver, Average” value (FR-positive KB tumors [2]; 99mTc-EC53 alone) is reported as 3.4. The “Tumor/Muscle, Average” value (FR-positive KB tumors [2]; 99mTc-EC53 alone) was 17.1, the “Tumor, Average” value (FR-positive KB tumors [2]; 99mTc-EC53 alone, 50.0 ug/kg) was 11.77 % ID/g and the “blood, Average” value (FR-positive KB tumors [2]; 99mTc-EC53 alone, 50.0 ug/kg) was 0.38 % ID/g. For the same compound, the “heart, Average” value (FR-positive KB tumors [2]; 99mTc-EC53 alone, 50.0 ug/kg) was 1.09 % ID/g, the “intestine, Average” value (FR-positive KB tumors [2]; 99mTc-EC53 alone, 50.0 ug/kg) was 3.53 % ID/g and the “kidney, Average” value (FR-positive KB tumors [2]; 99mTc-EC53 alone, 50.0 ug/kg) was 77.99 % ID/g. The “liver, Average” value (FR-positive KB tumors [2]; 99mTc-EC53 alone, 50.0 ug/kg) was 3.86 % ID/g, the “lung, Average” value (FR-positive KB tumors [2]; 99mTc-EC53 alone, 50.0 ug/kg) was 0.89 % ID/g and the “muscle, Average” value (FR-positive KB tumors [2]; 99mTc-EC53 alone, 50.0 ug/kg) was 0.76 % ID/g. For the same compound, the “spleen, Average” value (FR-positive KB tumors [2]; 99mTc-EC53 alone, 50.0 ug/kg) was 0.67 % ID/g, the “stomach, Average” value (FR-positive KB tumors [2]; 99mTc-EC53 alone, 50.0 ug/kg) was 1.04 % ID/g and the “accumulation in FR-positive KB tumors and kidneys on co-administration of free folate” value (FR-positive KB tumors [2]; about a 100-fold excess of free folate) was “blocked”. For the same compound, the “Tumor/Blood, Average” value (FR-positive KB tumors [2]; plus EC53 (cold)) was 4.5, the “Tumor/Kidney, Average” value (FR-positive KB tumors [2]; plus EC53 (cold)) was 0.14 and the “Tumor/Liver, Average” value (FR-positive KB tumors [2]; plus EC53 (cold)) was 0.3. The “Tumor/Muscle, Average” value (FR-positive KB tumors [2]; plus EC53 (cold)) was 8.5, the “Tumor/Blood, Average” value (FR-positive KB tumors [2]; plus Folic Acid) was 2.2 and the “Tumor/Kidney, Average” value (FR-positive KB tumors [2]; plus Folic Acid) was 0.07. The “Tumor/Liver, Average” value (FR-positive KB tumors [2]; plus Folic Acid) was 0.1 and the “Tumor/Muscle, Average” value (FR-positive KB tumors [2]; plus Folic Acid) was 5.2.

Reference: patent US7862798B2, “Vitamin-targeted imaging agents” (Endocyte, Inc., priority 2002, dated 2011)
